Tested on: PC12 cells
Experiment: PC12 bioassay of NGF released from fiber
Type: cell-based
Settings: for time period of significant cell differentiation: supernatant with released NGF
From the text: Nerve growth factor (NGF) was used as the model protein to investigate if incorporation of protein into the fibre compromises its bioactivity. The bioactivity of the released NGF was confirmed by its ability to differentiate PC12 cells, and in a dose-dependent manner. (FIG. 2C) At the increasing loading concentrations of NGF indicated, significant cell differentiation could be observed for time periods of up to 3 d, 5 d and 7 d, respectively. In all cases, the minimum concentration of NGF required to induce neurite outgrowth appeared to be in the region of 0.5 ng/mL, which agrees well with the literature. See, Physiological Reviews 60, 1284-1335 (1980).
Encapsulation of recombinant human β-NGF (MW 13,200, R&D Systems) was performed in the same way as described for BSA. Ring-spooled fibers were incubated in RPMI media over a period of 1 week, during which supernatants were collected for the PC12 bioassay and NGF ELISA (DuoSet ELISA Development System for human β-NGF, R&D Systems).

NGF: Recombinant human β-NGF (MW 13,200, R&D Systems), model protein encapsulated in and released from the fiber
minimum concentration of NGF required to induce neurite outgrowth (NGF released from fiber, PC12 cells): ~0.5 ng/mL | time period of significant cell differentiation (loading concentration 66 ng/mL): up to 3 d | time period of significant cell differentiation (loading concentration 86 ng/mL): ≤ 5 days | time period of significant cell differentiation (loading concentration 112 ng/mL): ≤ 7 days

Reference: patent US20070020244A1, “Fiber constructs and process of fiber fabrication” (The Johns Hopkins University, priority 2005, published 2007)
